Experimental data from patent US20230107128A1, “SCREENING SYSTEM FOR HUMAN-TRANSFORMED CARTILAGE CELL LINE-BASED CARTILAGE DISEASE TREATMENT AGENTS” (LUGEN SCI CO., LTD., priority 2018, published 2023).
Entries after “also recorded” stand apart in the source; their conditions may differ. Read-outs that look alike come from different tables or passages of the source.

How the values were obtained:
C28/I2 cell line = assay type: cell-based, human
Protocol: To confirm the effect of 2-AQCA on inhibiting a cell growth rate and the presence of toxicity, the cells to be analyzed (C28/I2 cell line and chondrocytes isolated from osteoarthritis patients) were seeded and fixed at an initial concentration of 10,000 cells per well in a 96-well plate 24 hours before the experiment, and the cells were subjected to starvation in serum-free culture fluid for seven hours on the following next day. After that, while the culture fluid was replaced with a serum culture fluid containing 10% FBS, the experimental groups were treated repeatedly three times with Kartogenin and 2-AQCA at each concentration and further cultured for 48 hours. The cells were treated with the test materials at each concentration of 0, 3.125, 6.25, 12.5, and 25 μM, which had been used to verify the effect of treatment at each of the concentrations. Similarly, in order to equalize the experimental conditions, the treatment was performed so that the final concentration of DMSO was 0.25% in all the experimental groups. […] Then, the absorbance of each cell was measured at 450 nm by using a TECAN SPARK multi-reader.

[1] = test system: human type II collagen fusion promoter (Col2a1 promoter); assay: Luciferase reporter screening system in C28/I2-EC2P-fLuc-CN5 cell line; assay type: cell-based; settings: for cartilage regeneration activity (luminescence) compared with Kartogenin; criterion equal to or higher than Kartogenin: 50 μM, 48 hours, screen of 37 natural products
Protocol: All the experimental groups for the verification of the screening system according to the present invention and the search for novel cartilage regeneration materials were prepared by dissolving the same in dimethyl sulfoxide (DMSO) at the same concentration of 20 mM. The cells to be analyzed were seeded and fixed into a white-bottom 96-well plate, which was a plate exclusively used for luminescence analysis, at an initial concentration of 10,000 cells per well 24 hours before the experiment. On the following day, the cells were subjected to starvation in serum-free culture fluid (DMEM/F12 media) for seven hours. After that, while the culture fluid was replaced with the serum culture fluid [DMEM/F12, 10% FBS, 1% penicillin, and streptomycin], the experimental groups on natural products at each 20 mM were diluted 1/400, treated repeatedly three times, and further cultured for 48 hours.
After further culturing the cells to be analyzed, which were treated with natural materials in above 5.1, for 48 hours, all the culture fluid was removed and replaced with a new culture fluid containing D-luciferin at a final concentration of 150 μg/ml and reacted at room temperature for five minutes. Then, the degree of light emission from each cell was measured by using the luminescence analysis function of the TECAN SPARK multi-reader.
By using the screening system for cartilage disease treatment agents according to the present invention, the pattern of changes in cartilage regeneration activity according to the treatment concentration of 2-AQCA was compared with the activity of Kartogenin, a positive control group of natural material.

Col2a1 = assay: Rq-PCR of Col2a1 expression in C28/I2 micromass culture; assay type: cell-based, human; settings: 10 μM, 14 days micromass culture
Protocol: (§1) C28/I2 cell lines were subjected to micromass culture in order to compare and examine the change in the expression of Col2a1 and Sox9, which are the representative cartilage differentiation markers, and Col10, which is a cartilage hypertrophy marker, by treatment with the complex functional natural material 2-AQCA during long-term culture for inducing cartilage differentiation. For this purpose, the C28/I2 cells cultured for three days were collected and a cell fluid was prepared at a concentration of 2×10^7 cells/ml, and then 10 μl of cells were taken and injected into the center of a 24-well plate, and fixed in an incubator of 37° C., 5% CO2 for two to three hours until all the cells were attached to the bottom. When all the cells were fixed, 500 μl of serum culture fluid (DMEM/F12, 10% FBS, 1% penicillin, and streptomycin) was added and further cultured for seven hours or more. […]
(§2) After completing the micromass culture for 14 days, RNA was isolated from each cell pellet by using TRIzol™, and cDNA was synthesized from the isolated RNA. The synthesized cDNA was compared and analyzed for expression of the corresponding gene through a real-time quantitative polymerase chain reaction (Rq-PCR) by using a specific primer for each gene. […]

Col10a1 = assay: Rq-PCR of Col10a1 expression in C28/I2 micromass culture; assay type: cell-based, human; settings: 10 μM, 14 days micromass culture
Protocol: as §1, §2

Sox9 = assay: Rq-PCR of Sox9 expression in C28/I2 micromass culture; assay type: cell-based, human; settings: 10 μM, 14 days micromass culture
Protocol: as §1, §2

[2] = C28/I2-EC2P-fLuc-CN5, drug 0 to 50 μM

SMILES	cell growth rate higher than that of Kartogenin (C28/I2 cell line; C28/I2, 6.25 μM)	cell growth rate higher than that of Kartogenin (C28/I2 cell line; C28/I2, 12.5 μM)	cartilage regeneration activity compared with Kartogenin ([1]; 25 μM)	cartilage regeneration activity (luminescence) compared with Kartogenin; criterion equal to or higher than Kartogenin [1]	cartilage regeneration activity compared with Kartogenin ([1]; concentration of less than 25 μM)	Col2a1 expression rate relative to the Kartogenin group (Col2a1)	Col2a1 expression rate relative to the negative control group (Col2a1)	decrease in Col10a1 expression compared to the negative control group (Col10a1)	Sox9 expression relative to the negative control group (Sox9)	luciferase activity at 50 μM ([1]; C28/I2-EC2P-fLuc-CN5, 50 μM)	luciferase activity with increasing concentration [1, 2]	cytotoxicity indirectly suggested by the luciferase activity ([1]; high concentration (50 μM))	luciferase activity compared with Kartogenin [1, 2]
O=C(O)c1ccc2c(c1)C(=O)c1ccccc1C2=O [2-AQCA, 2-anthraquinonecarboxylic acid]	about 11%	about 8.2%	slightly higher than that of Kartogenin	complies with the above conditions	somewhat lower than that of Kartogenin	about 4.2 times	7.6 times	about 40%	at least 2.1 times				
O=C(O)c1ccccc1C(=O)Nc1ccc(-c2ccccc2)cc1 [Kartogenin]								about 40%	insignificant increase	decreases the luciferase activity	increased as the concentration of both drugs is increased	has cytotoxicity at a high concentration	
Cn1ncc2c1-c1c(Oc3ccc(OCc4ccc5ccccc5n4)cc3)sc(C(N)=O)c1CC2 [TD-198946]				higher than that of Kartogenin							increased as the concentration of both drugs is increased; also recorded: continuously increases the luciferase activity		higher than that of Kartogenin
